Results on two substances are retold here after patent publication US7803378B2, “Antigen imitating extracellular areas of membrane proteins of type III produced from intracellular pathogenic micro-organisms, derived conformational antibodies and the use thereof” (priority 2003, dated 2010).

The test system of assay [1] is extracellular domains of the LMP1 protein. Nature of the assay: Immunogenic potency of LMP1 antigens: serum antibodies by ELISA after immunization. In kind it is in vivo, EBV. Particulars: mice immunized with LMP1-derived peptide coupled to KLH or lipid. The procedure:
(§1) The LMP1-derived peptides containing only one exogenous cystein (SEQ ID Nos 10, 11, 12, 15, 16) were individually coupled to activated KLH (Imject maleimide-activated KLH®, Perbio) according to the supplier's protocol. Mice (4 animals per group) were injected subcutaneously in the flank, with an emulsion of peptide (50 μg in 0.1 ml H20) and of complete Freund's adjuvant (0.1 ml). On days 21, 42 and 62 following the first injection (D0), the animals are given a boost injection, by the same route, with the same amount of antigen but in incomplete Freund's adjuvant. […]
(§2) Blood samples are taken, by retro-orbital puncture, from the immunized mice, and the sera are then recovered and frozen at −20° C. in 20-μl fractions. […] The reaction is stopped by adding 4N sulfuric acid, and the absorption at 492 nm is measured using an automatic microplate reader (Dynatech).
Antibodies directed against the extracellular domains of the EBV LMP1 protein were prepared by immunization of mice with the peptides SEQ ID Nos 10 and 11 coupled to KLH, or else with the peptide SEQ ID No. 13 coupled to cholesterol, as described in example 1. The kinetics of appearance of the serum antibodies directed against the extracellular domains of the LMP1 protein were analyzed by ELISA, as described in example 1.
(In an ELISA, binding on a coated surface is turned into a signal by an enzyme label.)

Assay [2] has as its system extracellular domains of the LMP2A protein. Nature of the assay: Immunogenic potency of the LMP2A antigens in mice and rats (ELISA). In kind it is in vivo, EBV. Particulars: comparison of LMP2A peptides SEQ ID Nos 15, 16, 17. On the procedure:
as §1, §2
Antibodies directed against the extracellular domains of the LMP2A proteins were prepared by immunization of batches of 4 BALB/c mice or of batches of 3 LOU/M rats with the peptides SEQ ID Nos 15, 16 and 17 coupled to activated KLH as described in example 1. The response in terms of antibodies directed against the extracellular domains of the LMP2A protein was analyzed by ELISA, as described in example 1.

Regarding “SEQ ID No: 14: LMP1-(ED1 + ED2 + ED3) with linking residues between domains (MSDWTGGALCLWNLHGQALCLYLQQNWWT; Epstein Barr Virus)”, in assay [1], the “Immunogenic Potency” value was “+(IgM)”.

On to TWRIEDPPFNSLCVDAVLQLSPL [SEQ ID No. 16], for which, in assay [2], the humoral response result was “best humoral response”.
